The source of these data is patent publication US9394297B2, “Amides as pim inhibitors” (AMGEN INC., priority 2012, dated 2016).

Where two headings read alike, the source gives them in different places.

Experiment [1] deals with T1, Pim-1 (Homo sapiens (Human), UniProt P11309). Kind of experiment: Pim enzyme assay (HTRF, 96-well), Pim-1. It is filed as biochemical. The settings on record: full length recombinant Pim-1, biotinylated-BAD (S112) peptide, 10-point curve, 2 h RT, read-out: Pim-1 IC50 IP. An outline of the steps:
(§1)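 HTRF detection of biotinylated BAD (S112) phosphorylation by full-length recombinant His-tagged Pim-1 or Pim-2 in 60 mM Hepes pH 7.0, 0.05% BSA, 2 mM DTT at 22 °C: 2 h for Pim-1, 45 min for Pim-2. Stopped with EDTA; IC50 from 4-parameter logistic fit of percent of control.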
On the technique in general: Time-resolved FRET reads energy transfer from a long-lived donor to a nearby acceptor.

Experiment [2] addresses T2, Pim-2 (Homo sapiens (Human), UniProt Q9P1W9). Kind of experiment: Pim enzyme assay (HTRF, 96-well), Pim-2. Format: biochemical. The settings on record: full length recombinant Pim-2, biotinylated-BAD (S112) peptide, 10-point curve, 45 min RT, read-out: Pim-2 IC50 IP. In short, it runs like this: as §1
Experiment [3] concerns the target T1, Pim-1. Kind of experiment: Pim-Mn enzyme assay (HTRF, 384-well), Pim-1. Format: biochemical. The note with it: read-out: Pim-1-Mn IC50 IP.
The target of experiment [4] is T2, Pim-2. Kind of experiment: Pim-Mn enzyme assay (HTRF, 384-well), Pim-2. It is filed as biochemical. The note with it: read-out: Pim-2-Mn IC50 IP.
The subject of experiment [5] is KMS-12-BM myeloma cell line. Kind of experiment: Pim KMS-12 cell assay (phospho-BAD S112 / total BAD, MSD).
[6] abbreviates: Pim-1 enzyme 5 pM, ATP 1.5 μM, BAD (S112) 0.5 μM, HTRF, 22-point curve.
The mark [7] stands for this setting: Pim-2 enzyme 0.5 pM, ATP 1.5 μM, BAD (S112) 0.5 μM, HTRF, 22-point curve.
Where [8] appears, read: Homo sapiens, KMS-12-BM, read-out: KMS-12-BM IC50 IP, KMS-12-BM cells, phospho-BAD (S112) vs total BAD, 1 hour 50 min with compound.

T1 sequence (P11309 whole entry): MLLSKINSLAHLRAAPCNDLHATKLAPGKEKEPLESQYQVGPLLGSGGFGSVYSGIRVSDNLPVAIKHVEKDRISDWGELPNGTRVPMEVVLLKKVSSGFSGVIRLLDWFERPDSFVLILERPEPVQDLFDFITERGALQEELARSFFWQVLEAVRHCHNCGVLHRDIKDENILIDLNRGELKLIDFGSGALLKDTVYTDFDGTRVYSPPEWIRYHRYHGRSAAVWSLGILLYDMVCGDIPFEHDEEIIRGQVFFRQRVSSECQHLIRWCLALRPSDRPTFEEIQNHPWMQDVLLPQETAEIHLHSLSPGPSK
T2 sequence (Q9P1W9 whole entry): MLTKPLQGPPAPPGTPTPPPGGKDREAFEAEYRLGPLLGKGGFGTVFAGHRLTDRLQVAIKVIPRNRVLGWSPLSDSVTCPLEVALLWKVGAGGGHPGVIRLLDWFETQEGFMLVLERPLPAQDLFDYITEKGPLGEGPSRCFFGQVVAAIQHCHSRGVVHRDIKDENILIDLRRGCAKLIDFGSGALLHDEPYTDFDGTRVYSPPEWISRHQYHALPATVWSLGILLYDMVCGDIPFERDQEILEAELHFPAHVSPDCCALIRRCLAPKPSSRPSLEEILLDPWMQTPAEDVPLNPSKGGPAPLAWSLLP

Broadly, the IC50 is the concentration at which inhibition is half-maximal. `Cc1nc2cccc(-c3cc4c([nH]3)CCNC4=O)c2nc1N[C@H]1CC[C@@H](N)C1` (single isomer, unassigned) [Example 143, 2-(3-((cis-3-aminocyclopentyl)amino)-2-methylquinoxalin-5-yl)-6,7-dihydro-1H-pyrrolo[3,2-c]pyridin-4(5H)-one]: the IC50 on Pim-1 [1] worked out at 0.7 nM; on Pim-2 [2], 0.8 nM; at Pim-1 [3] (setting [6]), 0.3 nM; at Pim-2 [4] (setting [7]), 0.4 nM; in experiment [5] (read-out: KMS-12-BM IC50 IP, KMS-12-BM cells, phospho-BAD (S112) vs total BAD, 1 hour 50 min with compound) it was 440 nM.

On to `Cc1nc2cccc(-c3cc4c([nH]3)CCNC4=O)c2nc1NC1CCC1` [Example 131, 2-(3-(cyclobutylamino)-2-methylquinoxalin-5-yl)-6,7-dihydro-1H-pyrrolo[3,2-c]pyridin-4(5H)-one], for which the IC50 at Pim-1 [1] stood at 5 nM; on Pim-2 [2], 2.6 nM; on Pim-1 [3] (setting [6]) it was 1.6 nM; at Pim-2 [4] (setting [7]) it was 0.8 nM; in experiment [5] (setting [8]), 142 nM.

As to `Cc1nc2cccc(-c3cc4c([nH]3)CCNC4=O)c2nc1NC1(C)CCC1` [Example 144, 2-(2-methyl-3-((1-methylcyclobutyl)amino)quinoxalin-5-yl)-6,7-dihydro-1H-pyrrolo[3,2-c]pyridin-4(5H)-one], the IC50 at Pim-1 [1] was 2 nM; at Pim-2 [2], 1.6 nM; at Pim-1 [3] (setting [6]) it was 0.8 nM; on Pim-2 [4] (setting [7]), 0.6 nM; in experiment [5] (setting [8]), 67.8 nM.

For `Cc1nc2cccc(-c3cc4c([nH]3)CCNC4=O)c2nc1NC1CC(F)(F)C1` [Example 145, 2-(3-((3,3-difluorocyclobutyl)amino)-2-methylquinoxalin-5-yl)-6,7-dihydro-1H-pyrrolo[3,2-c]pyridin-4(5H)-one], the IC50 on Pim-1 [1] came out at 14.2 nM; on Pim-2 [2] it was 8.9 nM; at Pim-1 [3], 8.7 nM; on Pim-2 [4] it was 4.6 nM; in experiment [5] (setting [8]), 971 nM.

For the molecule `Cc1nc2cccc(-c3cc4c([nH]3)CCNC4=O)c2nc1NC1(CO)CCC1` [Example 146, 2-(3-((1-(hydroxymethyl)cyclobutyl)amino)-2-methylquinoxalin-5-yl)-6,7-dihydro-1H-pyrrolo[3,2-c]pyridin-4(5H)-one], the IC50 on Pim-1 [1] is 8.9 nM; on Pim-2 [2] it was 7.9 nM; on Pim-1 [3] (setting [6]) it was 6.5 nM; on Pim-2 [4] (setting [7]), 3 nM; in experiment [5] (setting [8]), 481 nM.

As to `Cc1nc2cccc(-c3cc4c([nH]3)CCNC4=O)c2nc1NCC(C)(C)C` [Example 147, 2-(2-methyl-3-(neopentylamino)quinoxalin-5-yl)-6,7-dihydro-1H-pyrrolo[3,2-c]pyridin-4(5H)-one], the IC50 stood at 2.9 nM on Pim-1 [1]; 1.4 nM on Pim-2 [2]; 1.9 nM at Pim-1 [3] (setting [6]); 0.6 nM at Pim-2 [4] (setting [7]); 176 nM in experiment [5] (setting [8]).

Take `Cc1nc2cccc(-c3cc4c([nH]3)CCNC4=O)c2nc1NC(C)(C)CO` [Example 201, 2-(3-((1-hydroxy-2-methylpropan-2-yl)amino)-2-methylquinoxalin-5-yl)-6,7-dihydro-1H-pyrrolo[3,2-c]pyridin-4(5H)-one]: the IC50 at Pim-1 [1] is 3 nM; at Pim-2 [2], 2.8 nM; on Pim-1 [3] (setting [6]), 2.5 nM; at Pim-2 [4] (setting [7]), 1.7 nM; in experiment [5] (setting [8]), 136 nM.
